Data published in ChEMBL document CHEMBL1201862, “PubChem BioAssay data set” (2004).
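Following 48 hours of exposure in 96-well plates, responses at five concentrations were used to interpolate endpoints linearly. At the GI50, growth is halved.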 The source made the active and inactive calls. Rule as the data show it: active = GI50 up to about 1.1 µM and inactive = higher. Starred links: 1 amine or outer side, 2 acyl side, 3 side chain; linkers in the order of their positions; H or OH if unused. Positions of bridges follow the written chain, without caps; N, C: chain ends. Non-standard residues stand in square brackets, D forms with d. Residues, ends and D or L forms follow the SMILES beside them. ξ: configuration not given here. X37 = CC[C@H](C)[C@@H](N[*:1])[C@@H](O)CC(=O)O[C@H](C(=O)[C@H](C)C(=O)[*:2])C(C)C; NMeY = CN[C@@H](Cc1ccc(O)cc1)C(=O)O; dNMeL = CN[C@H](CC(C)C)C(=O)O; ξΔPro = O=C(O)C1C=CCN1

How the values were obtained:
Assay in all cases: NCI tumour cell line growth inhibition, 48 h
A498 = tested on: A498
SN12C = tested on: SN12C
CCRF-CEM = tested on: CCRF-CEM
OVCAR-5 = tested on: OVCAR-5
MDA-MB-435 = tested on: MDA-MB-435
SF-539 = tested on: SF-539
SR = tested on: SR
MCF7 = tested on: MCF7
T47D = tested on: T47D
OVCAR-4 = tested on: OVCAR-4
MDA-N = tested on: MDA-N
TK-10 = tested on: TK-10
RXF 393 = tested on: RXF 393
SF-295 = tested on: SF-295
SNB-75 = tested on: SNB-75
OVCAR-3 = tested on: OVCAR-3
CAKI-1 = tested on: CAKI-1
HOP-92 = tested on: HOP-92
HL-60 = tested on: HL-60
SK-MEL-2 = tested on: SK-MEL-2

SMILES	GI50 (A498)	GI50 (SN12C)	GI50 (CCRF-CEM)	GI50 (OVCAR-5)	GI50 (MDA-MB-435)	GI50 (SF-539)	GI50 (SR)	GI50 (MCF7)	GI50 (T47D)	GI50 (OVCAR-4)	GI50 (MDA-N)	GI50 (TK-10)	GI50 (RXF 393)	GI50 (SF-295)	GI50 (SNB-75)	GI50 (OVCAR-3)	GI50 (CAKI-1)	GI50 (HOP-92)	GI50 (HL-60)	GI50 (SK-MEL-2)
Cc1c(CCOC=O)c(=O)[nH]c2nncn12	> 100 µM (inactive)	> 100 µM (inactive)	> 100 µM (inactive)	> 100 µM (inactive)	> 100 µM (inactive)	> 100 µM (inactive)	> 100 µM (inactive)	> 100 µM (inactive)	> 100 µM (inactive)	> 100 µM (inactive)	> 100 µM (inactive)	> 100 µM (inactive)	> 100 µM (inactive)	> 100 µM (inactive)	> 100 µM (inactive)	> 100 µM (inactive)	> 10 µM (inactive)	> 100 µM (inactive)	> 100 µM (inactive)	–
O=c1[nH]/c(=C/c2ccc(OCc3ccccc3)cn2)c(=O)[nH]/c1=C/c1ccccc1	0.743 µM (active)	0.113 µM (active)	0.126 µM (active)	1.07 µM (active)	0.0434 µM (active)	0.12 µM (active)	0.289 µM (active)	0.425 µM (active)	> 24.7 µM (inactive)	0.465 µM (active)	0.0402 µM (active)	0.164 µM (active)	0.0951 µM (active)	0.107 µM (active)	0.0643 µM (active)	0.114 µM (active)	0.194 µM (active)	14.3 µM (inactive)	0.091 µM (active)	–
N=c1oc2ccc([N+](=O)[O-])cc2cc1C(=O)Nc1ccccn1	> 100 µM (inactive)	72.6 µM (inactive)	31.5 µM (inactive)	> 100 µM (inactive)	37.6 µM (inactive)	26.2 µM (inactive)	58.1 µM (inactive)	12.2 µM (inactive)	26.8 µM (inactive)	90.8 µM (inactive)	49.2 µM (inactive)	–	31.2 µM (inactive)	–	60.1 µM (inactive)	20.6 µM (inactive)	> 100 µM (inactive)	71.9 µM (inactive)	49.4 µM (inactive)	16.2 µM (inactive)
O=C(/C=C/C=C/c1ccccc1)c1ccccc1	15.1 µM (inactive)	15.9 µM (inactive)	–	14.7 µM (inactive)	17.7 µM (inactive)	17.3 µM (inactive)	11.2 µM (inactive)	16.3 µM (inactive)	18.4 µM (inactive)	17.7 µM (inactive)	16.2 µM (inactive)	19.9 µM (inactive)	17.6 µM (inactive)	–	17.8 µM (inactive)	19.2 µM (inactive)	17.1 µM (inactive)	18.4 µM (inactive)	3.6 µM (inactive)	20.8 µM (inactive)
CC[C@H](C)[C@H]1NC(=O)[C@@H](NC(=O)[C@@H](CC(C)C)N(C)C(=O)C2C=CCN2)[C@@H](C)OC(=O)[C@H](Cc2ccc(OC)cc2)N(C)C(=O)[C@@H]2CCCN2C(=O)[C@H](CC(C)C)NC(=O)[C@@H](C)C(=O)[C@H](C(C)C)OC(=O)C[C@@H]1O (stereo partly drawn) (H-[ξΔPro][dNMeL]T[X37]LP[NMeY](Me); ester 3-C)	0.00594 µM (active)	< 0.005 µM (active)	< 0.005 µM (active)	< 0.005 µM (active)	< 0.005 µM (active)	–	< 0.005 µM (active)	< 0.005 µM (active)	< 0.005 µM (active)	< 0.005 µM (active)	< 0.005 µM (active)	< 0.005 µM (active)	< 0.005 µM (active)	< 0.005 µM (active)	< 0.005 µM (active)	< 0.005 µM (active)	0.0107 µM (active)	< 0.005 µM (active)	0.00703 µM (active)	< 0.005 µM (active)
